Some results are limits rather than exact numbers.

For 27 molecules, IC50 results are on record in patent US20160060260A1, “BROMODOMAIN INHIBITORS FOR TREATING DISEASE” (Board of Regents, The University of Texas System, priority 2014, published 2016).

The assay concerns the target T1, Recombinant human His-tagged Trim24-PHD-bromodomain (Homo sapiens, UniProt O15164).
T1 construct: Recombinant human His-tagged Trim24-PHD-bromodomain (produced in-house); made in house
T1 sequence (O15164 824-1006 limits assumed): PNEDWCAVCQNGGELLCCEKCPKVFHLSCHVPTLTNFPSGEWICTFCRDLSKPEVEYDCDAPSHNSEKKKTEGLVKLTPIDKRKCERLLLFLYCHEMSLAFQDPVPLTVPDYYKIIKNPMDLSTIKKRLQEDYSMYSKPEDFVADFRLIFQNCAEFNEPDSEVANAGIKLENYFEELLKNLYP
As to the kind of experiment: Trim24 AlphaScreen Assay. Particulars: 5 nM Trim24 protein, 15 nM biotinylated H3K23ac (1-33aa) peptide. The format is binding. The method, boiled down: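 AlphaScreen read-out after 2 h with streptavidin donor and Ni-chelate acceptor beads at 10 ug/mL each, following 1 h room-temperature incubation of compound, His-tagged PHD-bromodomain protein and biotin-H3K23ac (1-33aa) peptide in Hepes pH 7.5 buffer with NaCl and Triton X-100. Signals normalised between no-compound and no-protein wells; IC50 from four-parameter logistic curves.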
In general terms: Alpha assays give light when donor and acceptor beads are brought close together.
The term IC50 denotes the concentration at which inhibition is half-maximal. Take `C=C(C)COc1cccc(Oc2cc3c(cc2NS(=O)(=O)c2cn(C)cn2)n(C)c(=O)n3C)c1` [Example 70, N-(1,3-dimethyl-6-(3-((2-methylallyl)oxy)phenoxy)-2-oxo-2,3-dihydro-H-benzo[d]imidazol-5-yl)-1-methyl-1H-imidazole-4-sulfonamide]: the IC50 lay in the range of 10 to 100 nM.
Next, `COCCCOc1cc(C#N)cc(Oc2cc3c(cc2NS(=O)(=O)c2cn(C)c(C)n2)n(C)c(=O)n3C)c1` [Example 120, N-(6-(3-cyano-5-(3-methoxypropoxy)phenoxy)-1,3-dimethyl-2-oxo-2,3-dihydro-1H-benzo[d]imidazol-5-yl)-1,2-dimethyl-1H-imidazole-4-sulfonamide]: 100 to 1000 nM; `Cn1cnc(S(=O)(=O)Nc2cc3c(cc2Oc2cccc(OCC4CC4)c2)n(C)c(=O)n3C)c1` [Example 100, N-(6-(3-(cyclopropylmethoxy)phenoxy)-1,3-dimethyl-2-oxo-2,3-dihydro-1H-benzo[d]imidazol-5-yl)-1-methyl-1H-imidazole-4-sulfonamide]: 10 to 100 nM.
The figure for `Cn1cnc(S(=O)(=O)Nc2cc3c(cc2Oc2cccc(OCC(C)(C)O)c2)n(C)c(=O)n3C)c1` [Example 238, N-{6-[3-(2-hydroxy-2-methylpropoxy)phenoxy]-1,3-dimethyl-2-oxo-2,3-dihydro-1H-1,3-benzodiazol-5-yl}-1-methyl-1H-imidazole-4-sulfonamide] is 100 to 1000 nM; for `CCCOc1cccc(Oc2cc3c(cc2NS(=O)(=O)c2cccc(N(C)C)c2)n(C)c(=O)n3C)c1` [Example 173, N-(1,3-dimethyl-2-oxo-6-(3-propoxyphenoxy)-2,3-dihydro-1H-benzo[d]imidazol-5-yl)-3-(dimethylamino)benzenesulfonamide] it is 100 to 1000 nM.
`CCCOc1cc(OCCCCCCN)cc(Oc2cc3c(cc2NS(=O)(=O)c2cccnc2)n(C)c(=O)n3C)c1` [Example 183, N-(6-(3-((6-aminohexyl)oxy)-5-propoxyphenoxy)-1,3-dimethyl-2-oxo-2,3-dihydro-1H-benzo[d]imidazol-5-yl)pyridine-3-sulfonamide]: the IC50 was 1 to 10 nM.
The figure for `CCCOc1cc(OCCCCN2CCC2)cc(Oc2cc3c(cc2NS(=O)(=O)c2ccc(OC)c(OC)c2)n(C)c(=O)n3C)c1` [Example 251, N-(6-{3-[4-(azetidin-1-yl)butoxy]-5-propoxyphenoxy}-1,3-dimethyl-2-oxo-2,3-dihydro-1H-1,3-benzodiazol-5-yl)-3,4-dimethoxybenzene-1-sulfonamide] is 1 to 10 nM; for `Cn1cc(S(=O)(=O)Nc2cc3c(cc2Oc2cccc(OCC(F)(F)F)c2)n(C)c(=O)n3C)cn1` [Example 72, N-(1,3-dimethyl-2-oxo-6-(3-(2,2,2-trifluoroethoxy)phenoxy)-2,3-dihydro-1H-benzo[d]imidazol-5-yl)-1-methyl-1H-pyrazole-4-sulfonamide] it is 10 to 100 nM; for `CCCOc1cc(OCCCOC)cc(Oc2cc3c(cc2NS(=O)(=O)c2cc(OC)cc(OC)c2)n(C)c(=O)n3C)c1` [Example 166, 3,5-dimethoxy-N-(6-(3-(3-methoxypropoxy)-5-propoxyphenoxy)-1,3-dimethyl-2-oxo-2,3-dihydro-1H-benzo[d]imidazol-5-yl)benzenesulfonamide] it is 100 to 1000 nM.
The figure for `CCCOc1cc(OCCCOC)cc(Oc2cc3c(cc2NS(=O)(=O)c2cnn(C)c2)n(C)c(=O)n3C)c1` [Example 153, N-(6-(3-(3-methoxypropoxy)-5-propoxyphenoxy)-1,3-dimethyl-2-oxo-2,3-dihydro-1H-benzo[d]imidazol-5-yl)-1-methyl-1H-pyrazole-4-sulfonamide] is 10 to 100 nM.
Take `Cc1n[nH]c(C)c1S(=O)(=O)Nc1cc2c(cc1Oc1cccc(OCc3ccccc3)c1)n(C)c(=O)n2C` [Example 2, N-(6-(3-(benzyloxy)phenoxy)-1,3-dimethyl-2-oxo-2,3-dihydro-1H-benzo[d]imidazol-5-yl)-3,5-dimethyl-1H-pyrazole-4-sulfonamide]: the IC50 lay in the range of 100 to 1000 nM.
Next, `Cn1cc(S(=O)(=O)Nc2cc3c(cc2Oc2cccc(OCC4CC4)c2)n(C)c(=O)n3C)cn1` [Example 101, N-(6-(3-(cyclopropylmethoxy)phenoxy)-1,3-dimethyl-2-oxo-2,3-dihydro-1H-benzo[d]imidazol-5-yl)-1-methyl-1H-pyrazole-4-sulfonamide]: 10 to 100 nM; `CCCOc1cc(OCCCOC)cc(Oc2cc3c(cc2NS(=O)(=O)c2cccc(OC)c2)n(C)c(=O)n3C)c1` [Example 151, 3-methoxy-N-(6-(3-(3-methoxypropoxy)-5-propoxyphenoxy)-1,3-dimethyl-2-oxo-2,3-dihydro-1H-benzo[d]imidazol-5-yl)benzenesulfonamide]: 10 to 100 nM.
The figure for `COc1ccc(S(=O)(=O)Nc2cc3c(cc2Oc2cc(OCCCCCCN(C)C)cc(OCC(F)(F)F)c2)n(C)c(=O)n3C)cc1OC` [Example 205, N-(6-(3-((6-(dimethylamino)hexyl)oxy)-5-(2,2,2-trifluoroethoxy)phenoxy)-1,3-dimethyl-2-oxo-2,3-dihydro-1H-benzo[d]imidazol-5-yl)-3,4-dimethoxybenzenesulfonamide] is 1 to 10 nM; for `Cn1c(=O)n(C)c2cc(Oc3cccc(OCc4ccccc4)c3)c(NS(=O)(=O)c3nnc[nH]3)cc21` [Example 22, N-(6-(3-(benzyloxy)phenoxy)-1,3-dimethyl-2-oxo-2,3-dihydro-1H-benzo[d]imidazol-5-yl)-4H-1,2,4-triazole-3-sulfonamide] it is 100 to 1000 nM.
The figure for `Cn1cnc(S(=O)(=O)Nc2cc3c(cc2Oc2cccc(OCC(C)(O)CO)c2)n(C)c(=O)n3C)c1` (stereo not drawn) [Example 231, N-{6-[3-(2,3-dihydroxy-2-methylpropoxy)phenoxy]-1,3-dimethyl-2-oxo-2,3-dihydro-1H-1,3-benzodiazol-5-yl}-1-methyl-1H-imidazole-4-sulfonamide] is 100 to 1000 nM; for `CCCOc1cc(OCCCOC)cc(Oc2cc3c(cc2NS(=O)(=O)c2cn4c(n2)CCCC4)n(C)c(=O)n3C)c1` [Example 140, N-(6-(3-(3-methoxypropoxy)-5-propoxyphenoxy)-1,3-dimethyl-2-oxo-2,3-dihydro-1H-benzo[d]imidazol-5-yl)-5,6,7,8-tetrahydroimidazo[1,2-a]pyridine-2-sulfonamide] it is 10 to 100 nM; for `Cn1c(=O)n(C)c2cc(Oc3cccc(OCC(F)(F)F)c3)c(NS(=O)(=O)C3CCOC3)cc21` (stereo not drawn) [Example 95, N-(1,3-dimethyl-2-oxo-6-(3-(2,2,2-trifluoroethoxy)phenoxy)-2,3-dihydro-1H-benzo[d]imidazol-5-yl)tetrahydrofuran-3-sulfonamide] it is 100 to 1000 nM.
Consider `Cn1c(=O)n(C)c2cc(Oc3cccc(OCc4ccccc4)c3)c(NS(=O)(=O)CCO)cc21` [Example 81, N-(6-(3-(benzyloxy)phenoxy)-1,3-dimethyl-2-oxo-2,3-dihydro-1H-benzo[d]imidazol-5-yl)-2-hydroxyethane-1-sulfonamide], for which the IC50 is above 1000 nM.
Next, `COC(C)(CO)COc1cccc(Oc2cc3c(cc2NS(=O)(=O)c2cn(C)cn2)n(C)c(=O)n3C)c1` (stereo not drawn) [Example 232, N-{6-[3-(3-hydroxy-2-methoxy-2-methylpropoxy)phenoxy]-1,3-dimethyl-2-oxo-2,3-dihydro-1H-1,3-benzodiazol-5-yl}-1-methyl-1H-imidazole-4-sulfonamide]: 100 to 1000 nM.
As to `CCCOc1cc(OCCCCCCN)cc(Oc2cc3c(cc2NS(=O)(=O)c2ccccn2)n(C)c(=O)n3C)c1` [Example 187, N-(6-(3-((6-aminohexyl)oxy)-5-propoxyphenoxy)-1,3-dimethyl-2-oxo-2,3-dihydro-1H-benzo[d]imidazol-5-yl)pyridine-2-sulfonamide], the IC50 lay within 10 to 100 nM.
`C=CCOc1cccc(Oc2cc3c(cc2NS(=O)(=O)c2cccc4ccccc24)n(C)c(=O)n3C)c1` [Example 142, N-(6-(3-(allyloxy)phenoxy)-1,3-dimethyl-2-oxo-2,3-dihydro-1H-benzo[d]imidazol-5-yl)naphthalene-1-sulfonamide]: the IC50 was 100 to 1000 nM.
Next, `CCCOc1cc(OCCCCCCN(C)C)cc(Oc2cc3c(cc2NS(=O)(=O)c2cnn(C)c2C)n(C)c(=O)n3C)c1` [Example 219, N-(6-(3-((6-(dimethylamino)hexyl)oxy)-5-propoxyphenoxy)-1,3-dimethyl-2-oxo-2,3-dihydro-1H-benzo[d]imidazol-5-yl)-1,5-dimethyl-1H-pyrazole-4-sulfonamide]: 1 to 10 nM.
The figure for `C=CCN(c1cc2c(cc1Oc1cccc(OCCC)c1)n(C)c(=O)n2C)S(=O)(=O)c1cn(CC=C)cn1` [Example 244, N,1-diallyl-N-(1,3-dimethyl-2-oxo-6-(3-propoxyphenoxy)-2,3-dihydro-1H-benzo[d]imidazol-5-yl)-1H-imidazole-4-sulfonamide] is 100 to 1000 nM; for `CC(C)c1cccc(S(=O)(=O)Nc2cc3c(cc2Oc2cccc(OCc4ccccc4)c2)n(C)c(=O)n3C)c1` [Example 32, N-(6-(3-(benzyloxy)phenoxy)-1,3-dimethyl-2-oxo-2,3-dihydro-1H-benzo[d]imidazol-5-yl)-3-isopropylbenzenesulfonamide] it is above 1000 nM.
Next, `CCCOc1cc(OCCCCN2CCCC2)cc(Oc2cc3c(cc2NS(=O)(=O)c2ccc(OC)c(OC)c2)n(C)c(=O)n3C)c1` [Example 250, N-(1,3-dimethyl-2-oxo-6-{3-propoxy-5-[4-(pyrrolidin-1-yl)butoxy]phenoxy}-2,3-dihydro-1H-1,3-benzodiazol-5-yl)-3,4-dimethoxybenzene-1-sulfonamide]: 10 to 100 nM; `Cn1cnc(S(=O)(=O)Nc2cc3c(cc2Oc2cccc(OCCCCN)c2)n(C)c(=O)n3C)c1` [Example 5, N-(6-(3-(4-aminobutoxy)phenoxy)-1,3-dimethyl-2-oxo-2,3-dihydro-1H-benzo[d]imidazol-5-yl)-1-methyl-1H-imidazole-4-sulfonamide]: 100 to 1000 nM.
